Where a name gives a salt, the structure may show the parent alone. Read-outs that look alike come from different tables or passages of the source.
Tests used:
SARS-CoV-2 [1] = experiment: microbe, parasite or virus in culture; settings: for inhibition at 10 µM: read-out: % Inh. (% Inhibition of SARS-CoV-2)
[2] = Compound cytotoxicity against CaCo-2 cells at 48 hours; assay type: cell-based, Human; settings: human, Table 5, further results of Examples 1 and 2, mean ± spread
Procedure: The cytotoxicity of the profiled compounds towards CaCo-2 cells at 48 hours was assessed. […] After 48 hours, cytotoxicity was evaluated using both digital phase contrast readout as described above and ATP determination (Cell titre-glo, Promega Corp).

SARS-CoV-2 [3] = settings: for % Inh. (% Inhibition of SARS-CoV-2): 10 µM
[4] = Severe acute respiratory syndrome coronavirus 2, Caco-2, 48 h
[5] = Severe acute respiratory syndrome coronavirus 2, Caco-2, 48 h, read-out: pIC50 (converted)

Compound | IC50 (SARS-CoV-2 [1]; [4]) [µM] | inhibition at 10 µM (SARS-CoV-2 [1]; [4]) [%] | IC50 (SARS-CoV-2 [1]; [5]) [µM] | CC50 at 48 h ([2]; CaCo-2 cells) [µM] | further results
Fc1ccc(-c2cncc(CN3CCN(c4cccc5c4OCCO5)CC3)c2)cc1 [Adoprazine] | 23.4 | 81.4 | 23.4 | 75.9 ± 54.2 | 
C=CCNc1nc(NCC=C)nc(N2CCN(C(c3ccc(F)cc3)c3ccc(F)cc3)CC2)n1 [Almitrine dimesilate] | 1.21 | 93.2 | 1.2 | 102 ± 73.6 | 
S=C(NCc1ccc2c(c1)OCO2)N1CCN(c2ncnc3c2oc2ccccc23)CC1 [Amuvatinib (MP-470), Amuvatinib] |  |  | 0.0302 | 0.06 ± 0.01 | 
CC(C)c1cc(C(C)C)c(CC(=O)NS(=O)(=O)Oc2c(C(C)C)cccc2C(C)C)c(C(C)C)c1 [Avasimibe (CI-1011), Avasimibe] | 10.9 | 91.4 | 11 | 13.7 ± 6.18 | 
O=C(Nc1nc(-c2cc(Cl)cs2)c(N2CCN(C3CCCCC3)CC2)s1)c1cnc(N2CCC(C(=O)O)CC2)c(Cl)c1 [Avatrombopag] | 7.17 | 95.9 | 7.24 | 20.9 ± 29.5 | 
O=c1ccc2ccc(OCCCCN3CCN(c4cccc5sccc45)CC3)cc2[nH]1 [Brexpiprazole] | 22.9 | 84.8 | 22.9 | 50.6 ± 68.7 | 
CO[C@H]1CC[C@H](N2C(=O)CNc3ncc(-c4ccc(C(C)(C)O)nc4)nc32)CC1 [CC-223] | 23.6 | 104 | 23.4 | 9.49 ± 2.55 | 
Cc1nc2ccccc2n1Cc1ccc(Cl)cc1 [CHLORMIDAZOLE] | > 1 |  |  | 0.88 ± 0.82 | 
Cc1cc(C)c(Nc2ccnc(Nc3ccc(C#N)cc3)n2)c(C)c1 [Dapivirine (TMC120), Dapivirine] |  | 108 |  | 5 ± 0.07 | 
CCOc1ccc(Cc2nccc3cc(OCC)c(OCC)cc23)cc1OCC [ETHAVERINE HYDROCHLORIDE] | 0.54 | 85 | 0.537 | 11 ± 1.07 | 
COC(=O)C[C@](O)(CCC(C)(C)O)C(=O)O[C@@H]1C(OC)=C[C@]23CCCN2CCc2cc4c(cc2[C@H]13)OCO4 [Harringtonine] | 23.7 | 93.6 | 23.4 |  | IC50 (SARS-CoV-2 [1]; Severe acute respiratory syndrome coronavirus 2, Caco-2, read-out: IC50: concentration of 50% inhibition of virus infection, Table 5, further results of Examples 1 and 2, […]): 19 µM; IC50 (SARS-CoV-2 [1]; Severe acute respiratory syndrome coronavirus 2, Caco-2, read-out: pIC50: -log10 of IC50, Table 5, further results of Examples 1 and 2 (converted)): 19.1 µM; CC50 at 48 h [2]: 0.07 ± 0.06 µM
CC(=O)N1CCN(c2ccc(OCC3COC(Cn4ccnc4)(c4ccc(Cl)cc4Cl)O3)cc2)CC1 (stereo not drawn) [KETOCONAZOLE] |  | 87.1 |  | 28.6 ± 4.97 | 
Cc1c(C(=O)Nc2ccc(N3C[C@@H](C)O[C@@H](C)C3)nc2)cccc1-c1ccc(OC(F)(F)F)cc1 [LDE225 (NVP-LDE225, Erismodegib), Erismodegib] | 7.03 | 93.5 | 7.08 | 2.26 ± 1.28 | 
Cc1cc(-c2ncc(CC(=O)Nc3ccc(-c4cnccn4)cn3)cc2C)ccn1 [LGK-974] | 2.33 | 105 | 2.34 | 7.61 ± 0.06 | 
CC(C)(C)Cn1c(N)nc2ccc(-c3[nH]c(C(C)(C)C)nc3-c3ccc(F)cc3)nc21 [LY2228820, Ralimetinib] |  | 112 |  | 56.2 ± 9.79 | 
NC(=O)N1CCC(CC(=O)N2CCC([C@H]3c4ncc(Br)cc4CCc4cc(Cl)cc(Br)c43)CC2)CC1 [Lonafarnib (SCH66336), Lonafarnib] |  |  |  | 10.7 ± 7.39 | 
Cn1c(C#N)ccc1-c1ccc2c(c1)C(C)(C)OC(=S)N2 [Tanaproget] | > 1 | 96.2 | 1.12 |  | IC50 (SARS-CoV-2 [3]): 1.13 µM
TC-I-2014 |  |  |  |  | % Inh. (% Inhibition of SARS-CoV-2) (SARS-CoV-2 [3]): 97.8%
Taltobulin (trifluoroacetate) |  |  |  |  | % Inh. (% Inhibition of SARS-CoV-2) (SARS-CoV-2 [3]): 83.8%
Tocofersolan |  |  |  |  | % Inh. (% Inhibition of SARS-CoV-2) (SARS-CoV-2 [3]): 95.2%
hemin |  |  |  |  | % Inh. (% Inhibition of SARS-CoV-2) (SARS-CoV-2 [3]): 62.9%
niguldipine-(S)-(+) |  |  |  |  | % Inh. (% Inhibition of SARS-CoV-2) (SARS-CoV-2 [3]): 93.0%
verteporfin |  |  |  |  | % Inh. (% Inhibition of SARS-CoV-2) (SARS-CoV-2 [3]): 139.9%

From patent publication US20230126310A1 (priority 2020, published 2023)
